From ChEMBL document CHEMBL3727356, “Therapeutic compounds and compositions” (2014)

Key:
Pyruvate kinase PKLR [1] = biological target: Pyruvate kinase PKLR (Homo sapiens, UniProt P30613, R532W); assay: Activation of PKR R532W mutant (unknown origin) incubated for 60 mins in presence of ADP, PEP and NADH by Spectraax microplate reader based assay
Pyruvate kinase PKLR [2] = biological target: T1, Pyruvate kinase PKLR (Homo sapiens, UniProt P30613); assay: Activation of wild type PKR (unknown origin) incubated for 60 mins in presence of ADP, PEP and NADH by Spectraax microplate reader based assay
T1 sequence (P30613 whole entry): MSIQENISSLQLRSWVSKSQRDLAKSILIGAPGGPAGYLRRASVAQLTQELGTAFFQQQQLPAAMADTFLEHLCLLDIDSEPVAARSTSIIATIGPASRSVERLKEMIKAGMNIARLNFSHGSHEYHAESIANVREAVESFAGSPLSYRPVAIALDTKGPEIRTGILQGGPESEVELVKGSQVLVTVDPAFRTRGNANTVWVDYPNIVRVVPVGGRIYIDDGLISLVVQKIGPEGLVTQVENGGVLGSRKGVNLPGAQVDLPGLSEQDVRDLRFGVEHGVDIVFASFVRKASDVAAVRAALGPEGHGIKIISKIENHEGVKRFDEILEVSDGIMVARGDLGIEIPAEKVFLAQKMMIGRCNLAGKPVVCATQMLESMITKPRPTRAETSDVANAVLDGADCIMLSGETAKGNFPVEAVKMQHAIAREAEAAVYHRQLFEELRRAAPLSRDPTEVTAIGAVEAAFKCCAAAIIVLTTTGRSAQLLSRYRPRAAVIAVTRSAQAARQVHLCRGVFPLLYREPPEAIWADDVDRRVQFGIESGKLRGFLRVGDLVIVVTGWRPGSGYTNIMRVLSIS

Pyruvate kinase PKLR [3] = biological target: T1, Pyruvate kinase PKLR; assay: Activation of wild type PKR (unknown origin) by cell based assay

Chain of Pyruvate kinase PKLR (Homo sapiens, UniProt P30613, R532W) (P30613 whole entry R532W): as the sequence (P30613 whole entry) above, with R532W counted along it

| Structure (SMILES) | AC50 (Pyruvate kinase PKLR [1]) [nM] | AC50 (Pyruvate kinase PKLR [2]) [nM] | AC50 (Pyruvate kinase PKLR [3]) [nM] |
| --- | --- | --- | --- |
| O=C(c1ccc(NS(=O)(=O)c2cccc3cccnc23)cc1)N1CCC(O)(c2cnsc2)CC1 | < 100 | < 100 | < 100 |
| COc1cccc(CC2(O)CCN(C(=O)c3ccc(NS(=O)(=O)c4cccc5cccnc45)cc3)CC2)c1 | < 100 | < 100 | < 100 |
| O=C(c1ccc(NS(=O)(=O)c2cccc3cccnc23)c(Cl)c1)N1CCC(O)(c2ccccc2Cl)CC1 | < 100 | < 100 | < 100 |
| Cc1cc(C(=O)N2CCC(O)(c3cccc(F)c3F)CC2)ccc1NS(=O)(=O)c1cccc2nccnc12 | < 100 | < 100 | < 100 |
| O=C(c1ccc(NS(=O)(=O)c2cccc3cccnc23)cc1)N1CCC(O)(c2ncccc2Cl)CC1 | < 100 | < 100 | < 100 |
| O=C(c1ccc(NS(=O)(=O)c2cccc3scnc23)cc1)N1CCC(O)(c2cccc(F)c2F)CC1 | < 100 | < 100 | < 100 |
| O=C(c1ccc(NS(=O)(=O)c2cccc3nccnc23)cc1)N1CCC(O)(c2ccccc2Cl)CC1 | < 100 | < 100 | < 100 |
| CC(C)CC1(O)CCN(C(=O)c2ccc(NS(=O)(=O)c3ccc(F)c4cccnc34)cc2)CC1 | < 100 | < 100 | < 100 |
| CS(=O)(=O)c1ccccc1C1(O)CCN(C(=O)c2ccc(NS(=O)(=O)c3cccc4cccnc34)cc2)CC1 | < 100 | < 100 | < 100 |
| CCCC1(O)CCN(C(=O)c2ccc(NS(=O)(=O)c3cccc4cccnc34)cc2)CC1 | < 100 | < 100 | < 100 |
| O=C(c1ccc(NS(=O)(=O)c2cccc3cccnc23)cc1F)N1CCC(O)(c2ccccc2Cl)CC1 | < 100 | < 100 | < 100 |
| CC(C)(C)C1(O)CCN(C(=O)c2ccc(NS(=O)(=O)c3cccc4cccnc34)cc2)CC1 | < 100 | < 100 | < 100 |
| O=C(c1ccc(NS(=O)(=O)c2cccc3cccnc23)cc1)N1CCC(O)(Cc2cccc(F)c2F)CC1 | < 100 | < 100 | < 100 |
| O=C(c1ccc(NS(=O)(=O)c2cccc3cc(F)cnc23)cc1)N1CCC(O)(c2ccccc2)CC1 | < 100 | < 100 | < 100 |
| Cc1nc2c(S(=O)(=O)Nc3ccc(C(=O)N4CCC(O)(c5ccccc5Cl)CC4)cc3)cccc2o1 | < 100 | < 100 | < 100 |
| O=C(c1ccc(NS(=O)(=O)c2ccc(F)c3cccnc23)cc1)N1CCC(O)(c2ccccc2Cl)CC1 | < 100 | < 100 | < 100 |
| O=C(c1ccc(NS(=O)(=O)c2cccc3cccnc23)cc1)N1CCC(O)(c2ccccc2)CC1 | < 100 | < 100 | < 100 |
| CC(C)C1(O)CCN(C(=O)c2ccc(NS(=O)(=O)c3cccc4cccnc34)cc2)CC1 | < 100 | < 100 | < 100 |
| O=C(c1ccc(NS(=O)(=O)c2cccc3cccnc23)cc1)N1CCC(O)(c2ccccc2F)CC1 | < 100 | < 100 | < 100 |
| O=C(c1ccc(NS(=O)(=O)c2cccc3cccnc23)cc1)N1CCC(O)(c2ccc(F)cc2)CC1 | < 100 | < 100 | < 100 |
| N#Cc1cc(NS(=O)(=O)c2cccc3cccnc23)ccc1C(=O)N1CCC(O)(c2ccccc2Cl)CC1 | < 100 | < 100 | < 100 |
| O=C(c1ccc(NS(=O)(=O)c2cccc3cccnc23)cc1)N1CCC(O)(Cc2cccnc2F)CC1 | < 100 | < 100 | < 100 |
| O=C(c1ccc(NS(=O)(=O)c2cccc3cccnc23)cc1)N1CCC(O)(c2cc(F)ccc2Cl)CC1 | < 100 | < 100 | < 100 |
| O=C(c1ccc(NS(=O)(=O)c2cccc3cccnc23)cc1Cl)N1CCC(O)(c2ccccc2Cl)CC1 | < 100 | < 100 | < 100 |
| Cc1cc(NS(=O)(=O)c2cccc3cccnc23)ccc1C(=O)N1CCC(O)(c2ccccc2Cl)CC1 | < 100 | < 100 | < 100 |
| O=C(c1ccc(NS(=O)(=O)c2cccc3cccnc23)c(F)c1)N1CCC(O)(Cc2ccccc2)CC1 | < 100 | < 100 | < 100 |
| O=C(c1ccc(NS(=O)(=O)c2cccc3cccnc23)cc1)N1CCC(O)(Cc2cccc(F)n2)CC1 | < 100 | < 100 | < 100 |
| O=C(c1ccc(NS(=O)(=O)c2cccc3cccnc23)cc1)N1CCC(O)(c2cccc(C(F)(F)F)c2)CC1 | < 100 | < 100 | < 100 |
| Cc1cccnc1C1(O)CCN(C(=O)c2ccc(NS(=O)(=O)c3cccc4cccnc34)cc2)CC1 | < 100 | < 100 | < 100 |
| Cc1ncccc1C1(O)CCN(C(=O)c2ccc(NS(=O)(=O)c3cccc4cccnc34)cc2)CC1 | < 100 | < 100 | < 100 |

Now from value to compound:

| AC50 (Pyruvate kinase PKLR [1]) [nM] | AC50 (Pyruvate kinase PKLR [2]) [nM] | AC50 (Pyruvate kinase PKLR [3]) [nM] | Structure (SMILES) |
| --- | --- | --- | --- |
| < 100 | < 100 | < 100 | O=C(c1ccc(NS(=O)(=O)c2cccc3cccnc23)cc1)N1CCC(O)(CC2CC2(F)F)CC1 (configuration not stated) |
| < 100 | < 100 | < 100 | O=C(c1ccc(NS(=O)(=O)c2cccc3scnc23)cc1)N1CCC(O)(CCC=C(F)F)CC1 |
| < 100 | < 100 | < 100 | O=C(c1ccc(NS(=O)(=O)c2cccc3cccnc23)cc1)N1CCC(O)(c2ncccc2C(F)(F)F)CC1 |
| < 100 | < 100 | < 100 | O=C(c1ccc(NS(=O)(=O)c2cccc3cccnc23)cc1)N1CCC(CO)(Cc2ccccc2)CC1 |
| < 100 | < 100 | < 100 | O=C(c1ccc(NS(=O)(=O)c2cccc3cccnc23)cc1)N1CCC(O)(c2cccc(C(F)(F)F)n2)CC1 |
| < 100 | < 100 | < 100 | O=C(c1ccc(NS(=O)(=O)c2cccc3scnc23)cc1)N1CCC(O)(c2ccccc2Cl)CC1 |
| < 100 | < 100 | < 100 | Cc1cccc(CC2(O)CCN(C(=O)c3ccc(NS(=O)(=O)c4cccc5cccnc45)cc3)CC2)c1 |
| < 100 | < 100 | < 100 | O=C(c1ccc(NS(=O)(=O)c2cccc3cccnc23)cc1)N1CCC(O)(c2ccncc2Cl)CC1 |
| < 100 | < 100 | < 100 | O=C(c1ccc(NS(=O)(=O)c2cccc3cccnc23)cc1)N1CCC(O)(c2cccnc2C(F)(F)F)CC1 |
| < 100 | < 100 | < 100 | O=C(c1ccc(NS(=O)(=O)c2cccc3cccnc23)cc1)N1CCC(O)(c2ccncc2)CC1 |
| < 100 | < 100 | < 100 | O=C(c1ccc(NS(=O)(=O)c2cccc3cccnc23)cc1)N1CCC(O)(c2cccc(F)c2)CC1 |
| < 100 | < 100 | < 100 | O=C(c1ccc(NS(=O)(=O)c2cccc3scnc23)cc1)N1CCC(O)(CC2CCC2)CC1 |
| < 100 | < 100 | < 100 | CC(C)CC1(O)CCN(C(=O)c2ccc(NS(=O)(=O)c3cccc4nccnc34)cc2OC(F)F)CC1 |
| < 100 | < 100 | < 100 | O=C(c1ccc(NS(=O)(=O)c2cccc3cccnc23)cc1)N1CCC(O)(CCC(F)F)CC1 |
